Measurements taken from patent publication US11147816B2, “Composition for inducing differentiation and protection of neural stem cells and method for inducing neuro-regeneration using the same composition” (GENUV Inc., priority 2016, dated 2021).
“Also recorded” adds a separate entry of the source. Where two headings read alike, the source gives them in different places.

Experiments:
[1] = tested on: mouse adult neural stem cells; conditions: for cell protection and NSC differentiation under amyloid-beta cytotoxicity: 10 μM amyloid-beta, each at its optimal concentration (AS703026 10, AZD8330 1, PD318088 1, binimetinib 10, refametinib 1, PD0325901 10, RO5126766 10 μM); for cell toxicity / cell death (morphology): AS703026 10 μM; for concentration at which the differentiation-inducing effect starts: no amyloid-beta
Protocol: NSC were isolated from the subventricular zone of week 8 mouse brain, treated with 20 ng/ml human basic fibroblast growth factor (bFGF) and 20 ng/ml human epidermal growth factor (EGF) in an IPM medium, and cultured as a suspension in 24-well plates for 7 days.
Two days before the isolation of single cells, 6-well plates were prepared by treating the wells with 10 μg/ml poly-L-ornithine solution and incubating overnight at room temperature for coating. The next day, poly-L-ornithine solution was removed and the plates were washed 3 times with sterilized triple distilled water. […] The culture solution used is N2 culture medium (supplemented with 20 ng/ml bFGF and 20 ng/ml EGF). Right before seeding, the coating solution was suctioned out, and the single cells were uniformly seeded into the culture plate before the plate dried up. Cells were allowed to attach to the plates for about one minute, and after checking that cells were sufficiently attached, an additional 1.5 ml of culture medium (N2 culture medium with 20 ng/ml bFGF and 20 ng/ml EGF) was added to the cells and cultured in a 37° C. incubator for 24 hours.
Wells not treated with amyloid-beta were left to use as negative controls.
Gibco's (Waltham, Mass.) human Aβ (1-42) was purchased to use for the amyloid-beta (Aβ), and the following process was followed to create oligomers. First, amyloid-beta was dissolved in 100% HFIP (1,1,1,3,3,3-hexafluoro-2-propanol) (Sigma, cat#.105228) to obtain a concentration of 1 mg/ml and vortexed at room temperature for 1 hour. Then, it was dried for 10 minutes in a speed Vac, after which DMSO (Sigma, cat#.D2650) was added to bring the concentration to 5 mM and then lightly vortexed at room temperature for 10 minutes. […] The solution was incubated at 4° C. for 24 hours and then added into the cultured cells.
The NCSs were cultured with the daily addition of EGF, bFGF, amyloid-beta, and test materials for 4 days.

[2] = tested on: mouse embryonic neural stem cells; test: qRT-PCR of relative mRNA expression of neuronal markers in mouse embryonic NSC (Examples 4-1, 4-2, 6); type: cell-based; conditions: 10 μM (10000 nM)
Protocol: Isopropanol (Ducsan, GyunggiDo, Korea, cat#. 67-63-0) was added and mixed for RNA isolation, then centrifuged again to remove the supernatant and obtain the pellet. The RNA pellet was resuspended in 75% ethanol (Ducsan, cat#. 64-17-15), centrifuged, and the supernatant removed. The pellet was then resuspended in sterilized triple distilled water to obtain the mRNA, incubated for 10 minutes at 55° C., and stored at −80° C.
Sterilized triple distilled water, […] oligo dT, and 1 mM dNTP were added to the RNA and incubated for 5 minutes at 65° C. This was followed by the addition of 5X First-strand buffer, 10 mM DTT, and M-MLV reverse transcriptase and incubated at 42° C. for 1 hour, then at 72° C. for 15 minutes, and at 4° C. for 30 minutes. The synthesized cDNA was stored at −20° C.
The term relative mRNA expression level signifies that in order to normalize each group's total RNA level, the mRNA expression level of each differentiation marker is divided by the expression level of GAPDH whose expression level is fairly constant across cells, and then the values of each test material are compared with those of the controls (undifferentiated NSC) in each group.

[3] = tested on: mouse embryonic neural stem cells; test: Morphology analysis of NSC differentiation in mouse embryonic neural stem cells (Examples 1, 6); type: cell-based; conditions: for concentration at which differentiation morphology starts: tested at 0.1, 1.0, 10 μM
Protocol: Neural stem cells were isolated from the brain of a day 14.5 mouse embryo, treated with 10 ng/ml human basic fibroblast growth factor (bFGF) (Peprotech, Princeton, NG, cat#.100-18B) and 20 ng/ml human epidermal growth factor (EGF) (Peprotech, cat#. AF-100-15) in a N2 culture medium, and cultured in suspension in a 25 cm2 flask (Nunc, Pittsburgh, Pa.) for 4 days. Formation of neurospheres was observed after 2 days.
In order to isolate single cells, 6-well plates were prepared the day before by treating the wells with 15 μg/ml poly-L-ornithine (Sigma, St. Louis, Mo., cat#.P2533) solution and incubating overnight at 37° C. for coating. The day of the single cell isolation, poly-L-ornithine solution was removed, the plates were washed with PBS three times, and 10 μg/ml fibronectin (Gibco, Waltham, Mass., cat#. 33016015) solution was added and incubated at 37° C. for 2 hours for coating.
Various concentrations of the compound of [Formula 1] […]

[4] = tested on: mouse embryonic neural stem cells; test: Immunocytochemistry analysis, Tuj1 and DAPI staining (Example 3); type: cell-based; conditions: 4 days
Protocol: Tuj1 (Neuron specific class III beta-tubulin) is a neuron specific marker protein, which was conjugated to rhodamine to show fluorescent red, while DAPI binds to the cell DNA and stains the cell nuclei fluorescent blue. […] The medium was removed and the cells were washed with PBS. After fixing with 10% formaldehyde (Sigma cat#. HT501128) at room temperature for 10 minutes, they were washed again with PBS. They were permeabilized with 0.2% Triton X-100 (Sigma, cat#. 93443) at room temperature for 15 minutes, washed with PBS, and incubated with 10% BSA (Sigma, cat#. A2153)+1% normal goat serum (Vector lab, Burlingame, Calif., cat#. S1000) at room temperature for 1 hour. […] The solution was removed, washed with PBS, and incubated at room temperature for 1 hour with the secondary antibody (rhodamine-conjugated antibody) diluted in 1% BSA+1% normal goat serum at a ratio of 1:200. Then, the cells were washed with PBS, incubated with 5 μg/ml DAPI (Sigma, cat#. D9542) for 5 minutes, washed with PBS again, and mounted on a slide glass for analysis with a fluorescent microscope.

[5] = target: MEK2 (Homo sapiens (Human), UniProt P36507); conditions: cited from earlier work
[6] = target: MEK1 (Homo sapiens (Human), UniProt Q02750); conditions: cited from earlier work
[7] = tested on: MEK 1, MEK2; conditions: literature reference; cited from earlier work
[8] = trametinib 10 nM, 100 nM, memantine 5 μM, 10 μM, 4 days
[9] = 1.0 μM and 10 μM, day 2 of culture
[10] = 1.0 nM and 10 nM, day 2 of culture

Chain of MEK1 (Q02750 whole entry, species assumed): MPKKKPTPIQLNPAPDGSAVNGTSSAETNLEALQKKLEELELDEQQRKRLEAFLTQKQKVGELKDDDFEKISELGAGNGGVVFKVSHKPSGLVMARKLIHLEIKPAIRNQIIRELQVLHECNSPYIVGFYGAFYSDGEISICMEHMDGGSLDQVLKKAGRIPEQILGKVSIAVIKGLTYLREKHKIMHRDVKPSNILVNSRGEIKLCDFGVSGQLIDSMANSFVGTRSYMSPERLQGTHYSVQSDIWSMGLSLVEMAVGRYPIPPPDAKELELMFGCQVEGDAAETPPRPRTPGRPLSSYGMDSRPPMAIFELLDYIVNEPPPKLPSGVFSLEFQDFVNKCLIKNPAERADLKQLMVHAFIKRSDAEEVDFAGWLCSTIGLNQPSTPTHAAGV
Chain of MEK2 (P36507 whole entry, species assumed): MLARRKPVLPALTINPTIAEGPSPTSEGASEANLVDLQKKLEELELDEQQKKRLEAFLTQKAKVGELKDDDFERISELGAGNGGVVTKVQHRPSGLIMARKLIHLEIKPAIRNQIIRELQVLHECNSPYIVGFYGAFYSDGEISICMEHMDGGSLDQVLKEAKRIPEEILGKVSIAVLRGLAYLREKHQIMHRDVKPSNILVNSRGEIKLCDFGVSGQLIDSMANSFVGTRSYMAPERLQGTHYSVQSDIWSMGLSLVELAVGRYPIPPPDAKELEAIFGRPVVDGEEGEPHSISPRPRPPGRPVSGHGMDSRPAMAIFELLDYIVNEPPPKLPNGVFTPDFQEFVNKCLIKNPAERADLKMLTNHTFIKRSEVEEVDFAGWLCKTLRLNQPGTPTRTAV

O=C(NC[C@H](O)CO)c1ccncc1Nc1ccc(I)cc1F [AS703026]
cell protection and NSC differentiation under amyloid-beta cytotoxicity ([1]; day 2): provided cell protection and induced the differentiation of NSC
concentration required for neuronal differentiation ([1]; regardless of 10 μM amyloid-beta treatment, 4 days): 10 µM
cell toxicity / cell death (morphology) [1, 8]: did not elicit cell toxicity
Tuj1 and TH mRNA expression compared with trametinib [2]: comparable to those of 25 nM trametinib
concentration required for neuronal differentiation to initiate ([3]; added daily, 4 days of culture): 1.0 µM
concentration at which differentiation morphology starts ([3]; day 2 of culture): 10 μM
neuron differentiation by Tuj1 staining ([4]; 0.1 μM): no differentiation was observed
neuron differentiation by Tuj1 staining ([4]; 1.0 μM): neuron differentiation occurs at this concentration, albeit only to a marginal extent

O=C(NOC[C@H](O)CO)c1ccc(F)c(F)c1Nc1ccc(I)cc1F [PD0325901]
concentration at which the differentiation-inducing effect starts ([1]; day 2 of culture): 0.1 µM

CC12CC3CC(C)(C1)CC(N)(C3)C2 [memantine]
cell toxicity / cell death (morphology) [1, 8]: death of neural stem cells
differentiation of NSC into neurons (morphology) ([1]; with or without 10 μM oligomeric Aβ(1-42), trametinib 10 nM, 100 nM, memantine 5 μM, 10 μM, 4 days): the differentiation of NSC into neurons was not observed

O=C(c1ccc(F)c(F)c1Nc1ccc(I)cc1F)N1CC(O)([C@@H]2CCCCN2)C1 [cobimetinib]
differentiation of adult NSC (morphology) ([1]; 10 μM, regardless of amyloid-beta, day 2): did not induce the differentiation of adult NSC; also recorded: does not induce the differentiation of mouse adult neural stem cells
IC50 [5]: 0.199 µM
selectivity toward MEK1 compared with MEK2 ([6]; Molecules 2017;22:1551): ≥ 100 ×
IC50 [6]: 0.00095 µM

O=C(NOCC1CC1)c1ccc(F)c(F)c1Nc1ccc(I)cc1Cl [PD184352]
NSC differentiation-inducing effect (morphology) ([3]; 0.1 μM, day 2 of culture): only a weak NSC differentiation-inducing effect
cell death (morphology) [3, 9]: all the cells died

O=C(NOCC(O)CO)c1cc(Br)c(F)c(F)c1Nc1ccc(I)cc1F (stereo not drawn) [PD318088]
cell protection and NSC differentiation under amyloid-beta cytotoxicity ([1]; day 2): provided cell protection and induced the differentiation of NSC
concentration at which differentiation morphology starts ([3]; day 2 of culture): 1.0 μM

BI847325
cell proliferation (morphology) [1, 10]: cell proliferation seemed to be somewhat inhibited
differentiation-inducing effect (morphology) [1, 10]: a differentiation-inducing effect was not observed
differentiation-inducing effect (morphology) ([1]; 0.1 μM, day 2 of culture): only a weak differentiation-inducing effect
cell death (morphology) [1, 9]: all the cells died

Cn1cnc2c(F)c(Nc3ccc(Br)cc3F)c(C(=O)NOCCO)cc21 [binimetinib]
cell protection and NSC differentiation under amyloid-beta cytotoxicity ([1]; day 2): provided cell protection and induced the differentiation of NSC
IC50 [7]: 0.012 µM
concentration at which differentiation morphology starts ([3]; day 2 of culture): 10 μM

COc1cc(F)c(F)c(Nc2ccc(I)cc2F)c1NS(=O)(=O)C1(C[C@H](O)CO)CC1 [refametinib]
cell protection and NSC differentiation under amyloid-beta cytotoxicity ([1]; day 2): provided cell protection and induced the differentiation of NSC
concentration at which differentiation morphology starts ([3]; day 2 of culture): 1.0 μM

N#CC(=C(/N)Sc1ccccc1N)/C(C#N)=C(\N)Sc1ccccc1N [U0126]
cell proliferation (morphology) ([1]; 0.1 μM and 1.0 μM, day 2 of culture): inhibition of cell proliferation
differentiation-inducing effect (morphology) ([1]; 2.5 μM, day 2 of culture): did not show any clear differentiation-inducing effect
cytotoxicity (morphology) ([1]; 10 μM, day 2 of culture): showed cell cytotoxicity
NSC differentiation-inducing effect (morphology) ([1]; all concentrations tested): failed to show any NSC differentiation-inducing effect

Cc1cc(C(=O)NOCCO)c(Nc2ccc(I)cc2F)n(C)c1=O [AZD8330]
cell protection and NSC differentiation under amyloid-beta cytotoxicity ([1]; day 2): provided cell protection and induced the differentiation of NSC
concentration at which differentiation morphology starts ([3]; day 2 of culture): 1.0 μM

CNS(=O)(=O)Nc1nccc(Cc2c(C)c3ccc(Oc4ncccn4)cc3oc2=O)c1F [RO5126766]
cell protection and NSC differentiation under amyloid-beta cytotoxicity ([1]; day 2): provided cell protection and induced the differentiation of NSC
concentration at which the differentiation-inducing effect starts ([1]; day 2 of culture): 1.0 µM
